Data published in patent US8153818B2, “Triazolyl phenyl benzenesulfonamides” (ChemoCentryx, Inc., priority 2006, dated 2012).

Each molecule was assayed against T1, CCR9 (Homo sapiens, UniProt P51686) (assay: CCR9 activity in one of the chemotaxis, binding or calcium mobilization assays). Settings: assay not specified per compound.
T1 construct: chemokine expressing cells (such as THP-1 cells for CCR2 assay or MOLT-4 cells for CCR9 assay); host or cells: MOLT-4
T1 sequence (P51686 1-369): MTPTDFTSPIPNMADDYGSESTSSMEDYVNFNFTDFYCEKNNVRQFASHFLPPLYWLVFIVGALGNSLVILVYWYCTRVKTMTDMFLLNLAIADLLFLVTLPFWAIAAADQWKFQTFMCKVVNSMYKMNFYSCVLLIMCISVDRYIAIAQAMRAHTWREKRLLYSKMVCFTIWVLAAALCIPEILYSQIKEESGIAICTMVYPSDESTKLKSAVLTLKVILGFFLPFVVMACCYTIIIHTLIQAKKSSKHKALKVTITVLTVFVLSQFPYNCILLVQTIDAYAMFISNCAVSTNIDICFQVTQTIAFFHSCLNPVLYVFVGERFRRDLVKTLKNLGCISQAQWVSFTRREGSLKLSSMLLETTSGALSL
Assay type: cell-based
Procedure: Conventional migration assay was used to determine the efficacy of potential receptor antagonists in blocking migration mediated through chemokines (such as CCR2 or CCR9). This assay was routinely performed using the ChemoTX® microchamber system with a 5-μm pore-sized polycarbonate membrane. To begin such an assay, chemokine expressing cells (such as THP-1 cells for CCR2 assay or MOLT-4 cells for CCR9 assay) were harvested by centrifugation of cell suspension at 1000 RPM on a GS-6R Beckman centrifuge. The cell pellet was resuspended in chemotaxis buffer (HBSS with 0.1% BSA) at 10×10^6 cells/mL for CCR2 assay (5×10^6 cells/mL for CCR9 assay). Test compounds at desired concentrations were prepared from 10 mM stock solutions by serial dilutions in chemotaxis buffer. An equal volume of cells and compounds were mixed and incubated at room temperature for 15 minutes. Afterwards, 20 μL of the mixture was transferred onto the porous membrane of a migration microchamber, with 29 μL of chemokine ligand (0.1 nM chemokine MCP-1 protein for CCR2 assay or […] chemokine TECK protein for CCR9 assay) placed at the lower chamber. Following an incubation at 37° C. (90-minute for CCR2; 150-minute for CCR9), during which cells migrated against the chemokine gradient, the assay was terminated by removing the cell drops from atop the filter. To quantify cells migrated across the membrane, 5 μL of 7×CyQUANT® solution was added to each well in the lower chamber, and the fluorescence signal measured on a Spectrafluor Plus fluorescence plate reader (TECAN, Durham, N.C.). The degree of inhibition was determined by comparing migration signals between compound-treated and untreated cells. IC50 calculation was further performed by non-linear squares regression analysis using Graphpad Prism (Graphpad Software, San Diego, Calif.).
Calcium flux assay measures an increase in intracellular calcium following ligand-induced receptor activation. In the screen of chemokine antagonists, it was used as a secondary assay carried out on a FLIPR® machine (Molecular Devices, Mountain View, Calif.). To begin an assay, chemokine expressing cells (such as THP-1 cells for CCR2 assay or MOLT-4 cells for CCR9 assay) were harvested by centrifugation of cell suspension, and resuspended to 1.5×10^6 cells/mL in HBSS (with 1% fetal calf serum). Cells were then labeled with a calcium indicator dye Fluo-4 AM for 45 minutes at 37° C. with gentle shaking. Following incubation, cells were pelletted, washed once with HBSS and resuspended in the same buffer at a density of 1.6×10^6 cells/mL. One hundred microliters of labeled cells were mixed with 10 μL of test compound at the appropriate concentrations on an assay plate. Chemokine protein (MCP-1 at a final concentration of 0.1 nM for CCR2 assay or TECK at a final concentration of 25 nM for CCR9 assay) to activate the receptor. The degree of inhibition was determined by comparing calcium signals between compound-treated and untreated cells. IC50 calculations were further performed by non-linear squares regression analysis using Graphpad Prism (Graphpad Software, San Diego, Calif.). […]
In the tables below, structures and activity are provided for representative compounds described herein. Activity is provided as follows for either or both of the chemotaxis assay and/or calcium mobilization assays, described above.

IC50 [µM] | SMILES
< 1 | CCn1cnnc1-c1cc(Cl)ccc1NS(=O)(=O)c1ccc(C(C)(C)C)cc1 [Compound 31, 4-tert-butyl-N-(4-chloro-2-(4-ethyl-4H-1,2,4-triazol-3-yl)phenyl)benzenesulfonamide]
< 1 | CC(C)(C)c1ccc(S(=O)(=O)Nc2ccc(Cl)cc2-c2nncn2[C@H]2CCNC2)cc1 [Compound 32]
< 1 | Cn1c(-c2cc(Cl)ccc2NS(=O)(=O)c2ccc(C(C)(C)C)cc2)nnc1[C@H]1CCCO1 [Compound 34]
< 1 | CC(C)(C)c1ccc(S(=O)(=O)Nc2ccc(Cl)cc2-c2nncn2C2CCOC2)cc1 (centres unmarked) [Compound 35]
< 1 | Cc1nnc(-c2cc(Cl)c(F)cc2NS(=O)(=O)c2ccc(C(C)(C)C)cc2)n1C [Compound 36, 4-tert-butyl-N-(4-chloro-2-(4,5-dimethyl-4H-1,2,4-triazol-3-yl)-5-fluorophenyl)benzenesulfonamide]
< 1 | CC(C)(C)c1ccc(S(=O)(=O)Nc2cc(F)c(F)cc2-c2nncn2[C@H]2CCNC2)cc1 [Compound 37]
< 1 | CCc1nnc(-c2cc(Cl)ccc2NS(=O)(=O)c2ccc(C(C)(C)C)cc2)n1CC [Compound 38, 4-tert-butyl-N-(4-chloro-2-(4,5-diethyl-4H-1,2,4-triazol-3-yl)phenyl)benzenesulfonamide]
< 1 | CN(C)Cc1nnc(-c2cc(Cl)c(F)cc2NS(=O)(=O)c2ccc(C(C)(C)C)cc2)n1C [Compound 39, 4-tert-butyl-N-(4-chloro-2-(5-((dimethylamino)methyl)-4-methyl-4H-1,2,4-triazol-3-yl)-5-fluorophenyl)benzenesulfonamide]
< 1 | Cn1c(-c2cocn2)nnc1-c1cc(Cl)ccc1NS(=O)(=O)c1ccc(C(C)(C)C)cc1 [Compound 40]
< 1 | COCCc1nnc(-c2cc(Cl)ccc2NS(=O)(=O)c2ccc(C(C)(C)C)cc2)n1C [Compound 41, 4-tert-butyl-N-(4-chloro-2-(5-(2-methoxyethyl)-4-methyl-4H-1,2,4-triazol-3-yl)phenyl)benzenesulfonamide]
< 1 | CC(C)(C)c1ccc(S(=O)(=O)Nc2cc(F)c(F)cc2-c2nncn2C2CCOC2)cc1 (centres unmarked) [Compound 42]
< 1 | CCn1c(-c2cc(Cl)ccc2NS(=O)(=O)c2ccc(C(C)(C)C)cc2)nnc1C(C)C [Compound 43, 4-tert-butyl-N-(4-chloro-2-(4-ethyl-5-isopropyl-4H-1,2,4-triazol-3-yl)phenyl)benzenesulfonamide]
< 1 | CC(C)(C)c1ccc(S(=O)(=O)Nc2cc(F)c(Cl)cc2-c2nncn2C2CCCNC2)cc1 (centres unmarked) [Compound 44]
< 1 | CNCc1nnc(-c2cc(Cl)c(F)cc2NS(=O)(=O)c2ccc(C(C)(C)C)cc2)n1C [Compound 45, 4-tert-butyl-N-(4-chloro-5-fluoro-2-(4-methyl-5-((methylamino)methyl)-4H-1,2,4-triazol-3-yl)phenyl)benzenesulfonamide]
< 1 | CC(C)n1c(-c2cc(Cl)ccc2NS(=O)(=O)c2ccc(C(C)(C)C)cc2)nnc1C1CCOCC1 [Compound 46]
< 1 | CCc1nnc(-c2cc(Cl)c(F)cc2NS(=O)(=O)c2ccc(C(C)(C)C)cc2)n1C1CCOC1 (centres unmarked) [Compound 47]

IC50 [µM] | SMILES
< 1 | CCNCc1nnc(-c2cc(Cl)c(F)cc2NS(=O)(=O)c2ccc(C(C)(C)C)cc2)n1C [Compound 48, 4-tert-butyl-N-(4-chloro-2-(5-((ethylamino)methyl)-4-methyl-4H-1,2,4-triazol-3-yl)-5-fluorophenyl)benzenesulfonamide]
< 1 | CC(C)NCc1nnc(-c2cc(Cl)c(F)cc2NS(=O)(=O)c2ccc(C(C)(C)C)cc2)n1C [Compound 49, 4-tert-butyl-N-(4-chloro-5-fluoro-2-(5-((isopropylamino)methyl)-4-methyl-4H-1,2,4-triazol-3-yl)phenyl)benzenesulfonamide]
< 1 | Cn1c(CNC2CC2)nnc1-c1cc(Cl)c(F)cc1NS(=O)(=O)c1ccc(C(C)(C)C)cc1 [Compound 50, 4-tert-butyl-N-(4-chloro-2-(5-((cyclopropylamino)methyl)-4-methyl-4H-1,2,4-triazol-3-yl)-5-fluorophenyl)benzenesulfonamide]
< 1 | COCc1nnc(-c2cc(Cl)c(F)cc2NS(=O)(=O)c2ccc(C(C)(C)C)cc2)n1C(C)C [Compound 51, 4-tert-butyl-N-(4-chloro-5-fluoro-2-(4-isopropyl-5-(methoxymethyl)-4H-1,2,4-triazol-3-yl)phenyl)benzenesulfonamide]
< 1 | COCc1nnc(-c2cc(Cl)c(F)cc2NS(=O)(=O)c2ccc(C(C)(C)C)cc2)n1C1CCOC1 (centres unmarked) [Compound 52, 4-tert-butyl-N-(4-chloro-5-fluoro-2-(5-(methoxymethyl)-4-(tetrahydrofuran-3-yl)-4H-1,2,4-triazol-3-yl)phenyl)benzenesulfonamide]
< 1 | CC(C)(C)c1ccc(S(=O)(=O)Nc2cc(F)c(Cl)cc2-c2nncn2[C@@H]2CCOC2)cc1 [Compound 53]
< 1 | CC(C)(C)c1ccc(S(=O)(=O)Nc2cc(F)c(Cl)cc2-c2nncn2[C@H]2CCOC2)cc1 [Compound 54]
< 1 | Cn1c(C(N)=O)nnc1-c1cc(Cl)c(F)cc1NS(=O)(=O)c1ccc(C(C)(C)C)cc1 [Compound 55, 5-(2-(4-tert-butylphenylsulfonamido)-5-chloro-4-fluorophenyl)-4-methyl-4H-1,2,4-triazole-3-carboxamide]
< 1 | CNC(=O)c1nnc(-c2cc(Cl)c(F)cc2NS(=O)(=O)c2ccc(C(C)(C)C)cc2)n1C [Compound 56, 5-(2-(4-tert-butylphenylsulfonamido)-5-chloro-4-fluorophenyl)-N,4-dimethyl-4H-1,2,4-triazole-3-carboxamide]
< 1 | Cn1c(-c2cc(Cl)c(F)cc2NS(=O)(=O)c2ccc(C(C)(C)C)cc2)nnc1C(C)(C)O [Compound 57, 4-tert-butyl-N-(4-chloro-5-fluoro-2-(5-(2-hydroxypropan-2-yl)-4-methyl-4H-1,2,4-triazol-3-yl)phenyl)benzenesulfonamide]
< 1 | CC(=O)c1nnc(-c2cc(Cl)c(F)cc2NS(=O)(=O)c2ccc(C(C)(C)C)cc2)n1C [Compound 58, N-(2-(5-acetyl-4-methyl-4H-1,2,4-triazol-3-yl)-4-chloro-5-fluorophenyl)-4-tert-butylbenzenesulfonamide]
< 1 | CC(O)c1nnc(-c2cc(Cl)c(F)cc2NS(=O)(=O)c2ccc(C(C)(C)C)cc2)n1C (centres unmarked) [Compound 59, 4-tert-butyl-N-(4-chloro-5-fluoro-2-(5-(1-hydroxyethyl)-4-methyl-4H-1,2,4-triazol-3-yl)phenyl)benzenesulfonamide]
< 1 | C[C@H](O)c1nnc(-c2cc(Cl)c(F)cc2NS(=O)(=O)c2ccc(C(C)(C)C)cc2)n1C [Compound 60]
< 1 | C[C@@H](O)c1nnc(-c2cc(Cl)c(F)cc2NS(=O)(=O)c2ccc(C(C)(C)C)cc2)n1C [Compound 61]
< 1 | COCCc1nnc(-c2cc(Cl)c(F)cc2NS(=O)(=O)c2ccc(C(C)(C)C)cc2)n1C [Compound 62, 4-tert-butyl-N-(4-chloro-5-fluoro-2-(5-(2-methoxyethyl)-4-methyl-4H-1,2,4-triazol-3-yl)phenyl)benzenesulfonamide]
< 1 | Cn1c(-c2cc(Cl)c(F)cc2NS(=O)(=O)c2ccc(C(C)(C)C)cc2)nnc1C1CCCOC1 (centres unmarked) [Compound 63]
